These results are taken from ChEMBL document CHEMBL1141809, “Antioxidative phenolic glycosides from sage (Salvia officinalis)” (J Nat Prod, 1999).

Experiment [1] can be described thus: Antioxidant activity assessed as trolox equivalent of ABTS radical scavenging activity in aqueous phase by metmyoglobin assay. It is filed as functional.
For experiment [2], the system named is Radical scavenging activity. Put plainly: Antioxidant activity assessed as DPPH radical scavenging activity after 0.5 hrs. It is filed as functional.

For `O=C(/C=C/c1ccc(O)c(O)c1)O[C@H]1O[C@@H](CO[C@H]2OC[C@@](O)(CO)[C@@H]2O)[C@H](O)[C@@H](O)[C@@H]1O`, in experiment [1], the Activity is 3.86. The IC50 (in general, the concentration that inhibits the measured activity by half) in experiment [2] came to 19.8 µM.

Consider `O=C(/C=C/c1ccc(O)c(O)c1)OC[C@H]1O[C@H](O[C@]2(CO)O[C@H](CO)[C@@H](O)[C@@H]2O)[C@H](O)[C@@H](O)[C@@H]1O`, for which the Activity in experiment [1] was 3.7. The IC50 in experiment [2] was 20.1 µM.
